Reference: patent US20240174643A1, “SOS1 PROTEIN DEGRADERS, PHARMACEUTICAL COMPOSITIONS THEREOF, AND THEIR THERAPEUTIC APPLICATIONS” (Bio TheryX, Inc., priority 2021, published 2024)

What was measured:
Format in all cases: cell-based
[1] = test system: Lovo (G13D) cells; experiment: Cell viability assay (CELLTITER-GLO), Lovo cells; details: Homo sapiens, 72 h, 3 days at 37° C., CELLTITER-GLO luminescence, read-out: Inhibition of Cancerous Cells IC50 (μM) Lovo (G13D)
Procedure: (§1) AsPC-1, 1358, and SW48 cells were cultured in RPMI 1640 media supplemented with 10% fetal bovine serum, streptomycin, and penicillin. Lovo and SW480 cells were cultured in DMEM media supplemented with 10% fetal bovine serum, streptomycin, and penicillin. The cell lines were plated in their respective medium supplemented with 2.5% fetal bovine serum, streptomycin, and penicillin. All cell lines were plated in white walled 96-well plates at 2,000 cells/well or 384-well plates at 500 cells/well, except Lovo, which were plated at 4,000 or 1,000 cells/well, respectively. The cells were incubated in DMSO (control) or a compound for 3 days at 37° C. under 5% CO2. A CELLTITER-GLO® reagent (100 μL) was then added to each well. After a 10 min incubation with shaking, luminescence was measured using an ENVISION® multimode plate reader.

[2] = test system: AsPC-1 (G12D) cells; experiment: Cell viability assay (CELLTITER-GLO), AsPC-1 cells; details: Homo sapiens, ASPC1, 72 h, 3 days at 37° C., CELLTITER-GLO luminescence, read-out: Inhibition of Cancerous Cells IC50 (μM) AsPC-1 (G12D)
Procedure: as §1

[3] = test system: SW48 (wt) cells; experiment: Cell viability assay (CELLTITER-GLO), SW48 cells; details: Homo sapiens, 72 h, 3 days at 37° C., CELLTITER-GLO luminescence, read-out: Inhibition of Cancerous Cells IC50 (μM) SW48 (wt)
Procedure: as §1

[4] = test system: H358 (G12C) cells; experiment: Cell viability assay (CELLTITER-GLO), H358 cells; details: Homo sapiens, NCI-H358, 72 h, 3 days at 37° C., CELLTITER-GLO luminescence, read-out: Inhibition of Cancerous Cells IC50 (μM) H358 (G12C)
Procedure: as §1

[5] = test system: SW480 (G12V) cells; experiment: Cell viability assay (CELLTITER-GLO), SW480 cells; details: Homo sapiens, 72 h, 3 days at 37° C., CELLTITER-GLO luminescence, read-out: Inhibition of Cancerous Cells IC50 (μM) SW480 (G12V)
Procedure: as §1

Row | SMILES | IC50 [1] | IC50 [2] | IC50 [3] | IC50 [4] | IC50 [5]
1 | COc1cc2c(N[C@H](C)c3cccc(Br)c3)nc(C)nc2cc1OCCCCCCCCCN1CCN(C(=O)COc2cccc(N3CCC(=O)NC3=O)c2)CC1 [Compound C5, (R)-1-(3-(2-(4-(9-((4-((1-(3-Bromophenyl)ethyl)amino)-6-methoxy-2-methyl-quinazolin-7-yl)oxy)nonyl)piperazin-1-yl)-2-oxoethoxy)phenyl)dihydropyrimidine-2,4(1H,3H)-dione] | 0.63 µM | 1.5 µM | 2 µM | 1.9 µM | 0.57 µM
2 | COc1cc2c(N[C@H](C)c3cccc(Br)c3)nc(C)nc2cc1OCCCCCCCCCCCN1CCN(C(=O)COc2cccc(N3CCC(=O)NC3=O)c2)CC1 [Compound C6, (R)-1-(3-(2-(4-(11-((4-((1-(3-Bromophenyl)ethyl)amino)-6-methoxy-2-methyl-quinazolin-7-yl)oxy)undecyl)piperazin-1-yl)-2-oxoethoxy)phenyl)dihydropyrimidine-2,4(1H,3H)-dione] | 0.74 µM | 3.4 µM | 2.8 µM | 3.3 µM | 0.58 µM
3 | COc1cc2c(N[C@H](C)c3cccc(Br)c3)nc(C)nc2cc1OCCCCCCCCCCCN1CCN(C(=O)CNc2ccc3c(N4CCC(=O)NC4=O)nn(C)c3c2)CC1 [Compound D7, (R)-1-(6-((2-(4-(11-((4-((1-(3-Bromophenyl)ethyl)amino)-6-methoxy-2-methyl-quinazolin-7-yl)oxy)undecyl)piperazin-1-yl)-2-oxoethyl)amino)-1-methyl-1H-indazol-3-yl)-dihydropyrimidine-2,4(1H,3H)-dione] | 1.1 µM | 4.5 µM | 0.67 µM | > 10 µM | 0.36 µM
4 | COc1cc2c(N[C@H](C)c3cccc(Br)c3)nc(C)nc2cc1OCCCCCCCCCN1CCN(C(=O)CNc2ccc3c(N4CCC(=O)NC4=O)nn(C)c3c2)CC1 [Compound D8, (R)-1-(6-((2-(4-(9-((4-((1-(3-Bromophenyl)ethyl)amino)-6-methoxy-2-methyl-quinazolin-7-yl)oxy)nonyl)piperazin-1-yl)-2-oxoethyl)amino)-1-methyl-1H-indazol-3-yl)-dihydropyrimidine-2,4(1H,3H)-dione] | 1.2 µM | 1.7 µM | 0.4 µM | 6.1 µM | 0.35 µM
5 | COc1cc2c(N[C@@H](C)c3cccc(Br)c3)nc(C)nc2cc1OCCCCCCCCCN1CCN(C(=O)CNc2cccc3c(N4CCC(=O)NC4=O)nn(C)c23)CC1 [Compound D9, (S)-1-(7-((2-(4-(9-((4-((1-(3-Bromophenyl)ethyl)amino)-6-methoxy-2-methyl-quinazolin-7-yl)oxy)nonyl)piperazin-1-yl)-2-oxoethyl)amino)-1-methyl-1H-indazol-3-yl)dihydropyrimidine-2,4(1H,3H)-dione] | 1.9 µM | 4.7 µM | 2.5 µM | 4.5 µM | 1.1 µM
6 | COc1cc2c(N[C@H](C)c3cccc(Br)c3)nc(C)nc2cc1OCCCCCCCCCCCN1CCN(C(=O)CNc2cccc3c(N4CCC(=O)NC4=O)nn(C)c23)CC1 [Compound D10, (R)-1-(7-((2-(4-(11-((4-((1-(3-Bromophenyl)ethyl)amino)-6-methoxy-2-methyl-quinazolin-7-yl)oxy)undecyl)piperazin-1-yl)-2-oxoethyl)amino)-1-methyl-1H-indazol-3-yl)-dihydropyrimidine-2,4(1H,3H)-dione] | 1.4 µM | > 10 µM | > 10 µM | > 10 µM | 1.2 µM
7 | COc1cc2nc(C)nc(N[C@H](C)c3cccc(Br)c3)c2cc1OC [reference compound] | 2.5 µM | 5.1 µM | 3.6 µM | 3.2 µM | 3.4 µM
